Broadly, the Ki is a measure of affinity in units of concentration, obtained from inhibition or displacement.

18 molecules from BindingDB's records for doi:10.1021/jm0110901 (Carlsberg Laboratory, 2002) can be followed below.

For this assay, the target named is Cysteine protease B CPB2.8ΔCTE (Leishmania mexicana). In words: Inhibition of Leishmania mexicana Cysteine protease B (CPB2.8deltaCTE) was obtained in a solution-phase assay.
Molecule `CSCC[C@H](NC(=O)[C@H](Cc1ccc(O)cc1)NC[C@H](Cc1ccccc1)NC(=O)[C@H](CC(C)C)NC(=O)[C@H](C)NC(=O)[C@@H](N)CC1CCCCC1)C(=O)N[C@@H](Cc1ccc(O)cc1)C(=O)N[C@@H](Cc1ccc(O)cc1)C(=O)O` [ChaALF(CH2NH)YMYY] registered a Ki of 1.1 µM. Under `NCCCC[C@H](NC(=O)[C@H](CC(N)=O)NC(=O)[C@H](Cc1ccccc1)NC(=O)[C@H](CO)NC[C@H](CCCN=C(N)N)NC(=O)[C@H](Cc1ccccc1)NC(=O)[C@H](CCCCN)NC(=O)[C@@H]1CCCN1)C(=O)O` [6-Amino-2-[2-(2-{2-[2-(2-{6-amino-2-[(pyrrolidine-2-carbonyl)-amino]-hexanoylamino}-3-phenyl-propionylamino)-5-guanidino-pentylamino]-3-hydroxy-propionylamino}-3-phenyl-propionylamino)-3-carbamoyl-propionylamino]-hexanoic acid] stands 8.8 µM; under `C[C@H](NC[C@H](Cc1ccccc1)NC(=O)[C@H](CCCCN)NC(=O)[C@H](CCCCN)NC(=O)[C@@H](N)CC(=O)O)C(=O)N[C@@H](CC1CCCCC1)C(=O)NCC(=O)N[C@@H](CCCCN)C(=O)O` [6-Amino-2-(2-{2-[2-(2-{6-amino-2-[6-amino-2-(2-amino-3-carboxy-propionylamino)-hexanoylamino]-hexanoylamino}-3-phenyl-propylamino)-propionylamino]-3-cyclohexyl-propionylamino}-acetylamino)-hexanoic acid], 31.1 µM.

The molecule `CC[C@H](C)[C@H](NC(=O)[C@H](CC(C)C)NC[C@H](Cc1ccccc1)NC(=O)CNC(=O)[C@H](CCCCN)NC(=O)[C@@H](N)CC(=O)O)C(=O)N[C@H](C(=O)N[C@@H](CCCCN)C(=O)O)C(C)C` came in with an inhibition constant (Ki) of 18.6 µM. As for `CC[C@H](C)[C@H](N)C(=O)N[C@@H](CC(=O)O)C(=O)NCC(=O)N[C@@H](CCCCN)CN[C@@H](CC(C)C)C(=O)N[C@@H](Cc1ccc(O)cc1)C(=O)N[C@@H](C)C(=O)N1CCC[C@H]1C(=O)O` [1-{2-[2-[2-(6-Amino-2-{2-[2-(2-amino-3-methyl-pentanoylamino)-3-carboxy-propionylamino]-acetylamino}-hexylamino)-4-methyl-pentanoylamino]-3-(4-hydroxy-phenyl)-propionylamino]-propionyl}-pyrrolidine-2-carboxylic acid], the figure is 5.3 µM; as for `CC[C@H](C)[C@H](N)C(=O)N[C@H](C(=O)N[C@H](C(=O)N[C@@H](CCCCN)CN[C@@H](C)C(=O)N[C@H](C(=O)N[C@@H](CC1CCCCC1)C(=O)N[C@H](C(=O)O)[C@@H](C)O)[C@@H](C)CC)[C@@H](C)O)C(C)C` [2-(2-{2-[2-(6-Amino-2-{2-[2-(2-amino-3-methyl-pentanoylamino)-3-methyl-butyrylamino]-3-hydroxy-butyrylamino}-hexylamino)-propionylamino]-3-methyl-pentanoylamino}-3-cyclohexyl-propionylamino)-3-hydroxy-butyric acid], 100 µM; as for `CC[C@H](C)[C@H](NC(=O)[C@H](C)NC[C@H](Cc1ccccc1)NC(=O)[C@H](CCCNC(=N)N)NC(=O)[C@H](Cc1c[nH]c2ccccc12)NC(=O)[C@@H](N)CCSC)C(=O)N[C@H](C(=O)N[C@H](C(=O)O)[C@@H](C)O)[C@@H](C)CC` [2-(2-{2-[2-(2-{2-[2-(2-Amino-4-methylsulfanyl-butyrylamino)-3-(1H-indol-3-yl)-propionylamino]-5-guanidino-pentanoylamino}-3-phenyl-propylamino)-propionylamino]-3-methyl-pentanoylamino}-3-methyl-pentanoylamino)-3-hydroxy-butyric acid], 6.5 µM. `C[C@H](NC[C@H](CCCCN)NC(=O)[C@H](Cc1ccccc1)NC(=O)[C@H](CCCCN)NC(=O)[C@@H](N)CC(=O)O)C(=O)N[C@@H](CC1CCCCC1)C(=O)NCC(=O)N[C@@H](CCCCN)C(=O)O` [6-Amino-2-(2-{2-[2-(6-amino-2-{2-[6-amino-2-(2-amino-3-carboxy-propionylamino)-hexanoylamino]-3-phenyl-propionylamino}-hexylamino)-propionylamino]-3-cyclohexyl-propionylamino}-acetylamino)-hexanoic acid] showed a Ki of 0.6 µM.

In turn, `CC[C@H](C)[C@H](NC[C@H](Cc1ccccc1)NC(=O)[C@H](Cc1cnc[nH]1)NC(=O)[C@H](CCC(N)=O)NC(=O)[C@@H](N)CC(=O)O)C(=O)N[C@H](C(=O)N[C@H](C(=O)N[C@@H](CCC(N)=O)C(=O)O)C(C)C)[C@@H](C)CC` gave a Ki of 30 µM. `CC[C@H](C)[C@H](NC(=O)[C@H](CC(N)=O)NC(=O)[C@H](Cc1ccccc1)NC[C@H](CCCCN)NC(=O)[C@H](CC1CCCCC1)NC(=O)[C@H](CC1CCCCC1)NC(=O)[C@@H](N)CC1CCCCC1)C(=O)N[C@@H](CCCCN)C(=O)O` [6-Amino-2-(2-{2-[2-(6-amino-2-{2-[2-(2-amino-3-cyclohexyl-propionylamino)-3-cyclohexyl-propionylamino]-3-cyclohexyl-propionylamino}-hexylamino)-3-phenyl-propionylamino]-3-carbamoyl-propionylamino}-3-methyl-pentanoylamino)-hexanoic acid] gave a Ki of 6.3 µM. The molecule `CC[C@H](C)[C@H](NC(=O)[C@H](CCSC)NC(=O)[C@H](CO)NC(=O)[C@H](CC1CCCCC1)NC[C@H](Cc1ccccc1)NC(=O)[C@H](CC1CCCCC1)NC(=O)[C@H](CO)NC(=O)[C@@H](N)CC(=O)O)C(=O)O` gave an inhibition constant (Ki) of 10.1 µM. “H-AIWYWAAV-OH [2-(2-{2-[2-[2-[2-[2-(2-Amino-propionylamino)-3-methyl-pentanoylamino]-3-(1H-indol-3-yl)-propionylamino]-3-(4-hydroxy-phenyl)-propionylamino]-3-(1H-indol-3-yl)-propionylamino]-propionylamino}-propionylamino)-3-methyl-butyric acid]” gave a Ki of 44.7 µM. Under `CC[C@H](C)[C@H](NC(=O)[C@H](C)NC(=O)[C@@H](N)CC1CCCCC1)C(=O)N[C@H](CN[C@@H](Cc1ccc(O)cc1)C(=O)N[C@@H](CCSC)C(=O)N[C@@H](Cc1ccc(O)cc1)C(=O)N[C@@H](Cc1ccc(O)cc1)C(=O)O)Cc1ccccc1` stands 0.1 µM. Take `CC(C)C[C@H](NC[C@H](Cc1ccccc1)NC(=O)[C@H](Cc1cnc[nH]1)NC(=O)[C@H](CCCCN)NC(=O)[C@@H](N)CC(=O)O)C(=O)N[C@@H](CC(C)C)C(=O)N[C@H](C(=O)N[C@@H](CCCCN)C(=O)O)C(C)C` [6-Amino-2-{2-[2-(2-{2-[2-[6-amino-2-(2-amino-3-carboxy-propionylamino)-hexanoylamino]-3-(3H-imidazol-4-yl)-propionylamino]-3-phenyl-propylamino}-4-methyl-pentanoylamino)-4-methyl-pentanoylamino]-3-methyl-butyrylamino}-hexanoic acid]: the inhibition constant (Ki) amounted to 1 µM. Compared with the last molecule, the Ki is about 10-fold higher. As for `CC[C@H](C)[C@H](NC[C@H](Cc1ccccc1)NC(=O)[C@H](Cc1c[nH]cn1)NC(=O)[C@H](CCCCN)NC(=O)[C@@H](N)CC(=O)O)C(=O)N[C@H](C(=O)N[C@H](C(=O)N[C@@H](CCCCN)C(=O)O)C(C)C)[C@@H](C)CC`, the figure is 20 µM; as for `CC[C@H](C)[C@H](N)C(=O)N[C@H](C(=O)NCC(=O)N[C@H](CN[C@@H](Cc1ccc(O)cc1)C(=O)N[C@H](C(=O)N[C@H](C(=O)N[C@@H](C)C(=O)O)C(C)C)[C@@H](C)CC)Cc1ccccc1)[C@@H](C)O`, 53.3 µM. With `CC[C@H](C)[C@H](NC(=O)[C@H](Cc1ccccc1)NC[C@H](Cc1ccccc1)NC(=O)[C@@H](NC(=O)[C@@H]1CCCN1C(=O)[C@@H](N)CCCCN)C(C)C)C(=O)N[C@@H](CC1CCCCC1)C(=O)O`, the Ki was 13 µM.

Consider `CC[C@H](C)[C@H](NC(=O)[C@H](CC(C)C)NC[C@H](CCCNC(=N)N)NC(=O)CNC(=O)[C@H](CC1CCCCC1)NC(=O)[C@@H](N)C(C)C)C(=O)N[C@@H](Cc1cnc[nH]1)C(=O)N[C@@H](CC(=O)O)C(=O)O` [2-[2-{2-[2-(2-{2-[2-(2-Amino-3-methyl-butyrylamino)-3-cyclohexyl-propionylamino]-acetylamino}-5-guanidino-pentylamino)-4-methyl-pentanoylamino]-3-methyl-pentanoylamino}-3-(3H-imidazol-4-yl)-propionylamino]-succinic acid], for which the Ki is 71.6 µM.
